Reference: patent US20210087159A1, “TETRAHYDROCANNABINOLIC- CA[…] DERIVATIVES AND USES THEREOF” (AL&AM […]., priority 2018, published 2021)

Assays:
Type in all cases: cell-based
[1] = system: A549 (lung carcinoma); experiment: XTT cytotoxicity assay (Pharma Seed); conditions: Homo sapiens, 48 hours, 20, 10, 5, 1 μM, assay medium 1% FBS
Experimental: In this study, the cytotoxicity of several compounds of the present invention on lung and pancreatic cancer cell was evaluated.
A549 (lung carcinoma) culture medium: F12-K, supplemented with 10% FBS (heat inactivated), 2 mM L-glutamine, and 1% of Pen/Strep/Amp solution. A549 assay medium: F12-K, supplemented with 1% FBS (heat inactivated), 2 mM L-glutamine, and 1% of Pen/Strep/Amp solution.
Each of the tested compounds was dissolved in DMSO to reach a stock concentration of 20 mM (and stored at −15° C.-−25° C. until use. Compound Ia28 (MW 484 g/mol, 3.05 mg total) was dissolved in 0.315 mL; compound Ia9 (MW 484 g/mol, 2.33 mg total) was dissolved in 0.241 mL; and compound Ia6 (MW 428.3 g/mol, 2.25 mg total) was dissolved in 0.262 mL.
On the day of incubation with the cells, each compound was diluted in DMSO to reach 2 mM, 1 mM, 0.5 mM, 0.1 mM stock concentrations (1:10, 1:20, 1:40 and 1:200), and each of these stocks was further diluted in assay medium 1:100 for final concentration of 20 μM, 10 μM, 5 μM, and 1 μM.
Part 1—cell number calibration. PANC-1 and A549 cells were each plated in a 96 well plate, in their culture medium, at various cell concentrations per well, in triplicates, and were allowed to attach for 24 hours. Thereafter, culture medium was discarded, assay medium was added, and the cells were incubated for additional 72 hours. Finally, assay medium was discarded, and fresh culture medium was added to the cells along with 50 μl XTT reagent. The OD was measured every two hours for 6 hours (three times).
The highest cells number/well were chosen for part 2 as follows: PANC-1 at 7,500 cells per well, A549 at 5000 cells per well.
Part 2—cells incubation with tested compounds. PANC-1 and A549 cells were plated in a 96 well plate, in their culture medium, at the optimal cell concentration according to the results from the previous section and were allowed to attach for 24 hours. […] The OD was measured at the optimal time point according to the results in the previous section.

[2] = system: AsPC-1, pancreas, ductal carcinoma; experiment: CellTiter-Glo cell viability assay, cancer cell cytotoxicity/anti-proliferation panel (Chempartner); conditions: for Inhibition: AsPC-1, 72 hours, compounds 10 μM starting, STS 2 μM starting, 10-pt, 3-fold dilution; for IC50: Homo sapiens, ASPC1, 72 h, read-out: IC50 (absolute IC50)
[3] = system: Caco-2 ATCC colon adenocarcinoma; experiment: as above
[4] = system: TE-6 RIKEN esophagus, carcinoma; experiment: as above
[5] = system: PC-3 ATCC prostate adenocarcinoma; experiment: as above
[6] = 72 h, read-out: IC50 (absolute IC50)

`CCCCCc1cc2c(c(O)c1C(=O)NCCN(C)C)[C@@H]1C=C(C)CC[C@H]1C(C)(C)O2` [Ia6, (6aR,0aR)—N-(2-(dimethylamino)ethyl)-1-hydroxy-6,6,9-trimethyl-3-pentyl-6a,7,8,10a-tetrahydro-6H-benzo[c]chromene-2-carboxamide] gave an IC50 [1] of 5.2 µM, an Inhibition [2] of 54.46% and an IC50 [2] of 9.1 µM.
For `CCCCCc1cc2c(c(O)c1C(=O)NCCCN1CCOCC1)[C@@H]1C=C(C)CC[C@H]1C(C)(C)O2` [Ia9, (6aR,0aR)-1-hydroxy-6,6,9-trimethyl-N-(3-morpholinopropyl)-3-pentyl-6a,7,8,10a-tetrahydro-6H-benzo[c]chromene-2-carboxamide], the IC50 [1] was 7.8 µM, the Inhibition [2] was 64.62% and the IC50 [2] was 7.38 µM. For the same molecule, the Inhibition ([3]; Caco-2, 72 hours, compounds 10 μM starting, STS 2 μM starting, 10-pt, 3-fold dilution) was 60.81%, the IC50 ([3]; Homo sapiens, Caco-2, 72 h, read-out: IC50 (absolute IC50)) was 8.87 µM and the IC50 [4, 6] was 7.36 µM. The Inhibition ([4]; TE-6, 72 hours, compounds 10 μM starting, STS 2 μM starting, 10-pt, 3-fold dilution) was 67.27%, the IC50 [5, 6] was 9.94 µM and the Inhibition ([5]; PC-3, 72 hours, compounds 10 μM starting, STS 2 μM starting, 10-pt, 3-fold dilution) was 61.13%.
`C=C(C)[C@@H]1CCC(C)=C[C@H]1c1c(O)cc(CCCCC)c(C(=O)NCCCN2CCOCC2)c1O` [Ia28, (1′R,2′R)-2,6-dihydroxy-5′-methyl-N-(3-morpholinopropyl)-4-pentyl-2′-(prop-1-en-2-yl)-1′,2′,3′,4′-tetrahydro-[1,1′-biphenyl]-3-carboxamide] showed an IC50 [1] of 11 µM.
